In patent US9737525B2, “Small molecule activators of NRF2 pathway” (The General Hospital Corporation, priority 2013, dated 2017):

Columns and labels:
[1] = Detection of MIND4 in mouse brain after escalated i.p. dosing; type: in vivo; conditions: brain cortex, intraperitoneal, i.p. daily, escalated 50 to 275 mg/kg, 2 hours after last dose, HPLC, read-out: Concentration in wild type mouse cortices
Description: To evaluate whether MIND4 would also confer an anti-inflammatory effect in vivo, pilot studies were performed to assess brain permeability of MIND4 in mice (FIG. 7A-B). MIND4 was solubilized at 5 mg/ml in 7.5% Cremophor EL (BASF)/2.375% Ethanol in PBS, Wild type mice (N=3) were subjected to MIND4 treatment at escalated dosing from 50 mg/kg up to a final dose of 275 mg/kg administered daily by intraperitoneal (i.p.) injection. […] Mice were sacrificed 2 hours following the last drug administration and isolated cortical samples were subjected to HPLC analysis.
Specifically, frozen mouse cortical tissues were extracted in ice cold methanol containing 0.4% acetic acid (approximately 1:6 ratios), probe sonicated for 5 sec and centrifuged at 22000×g for 20 min at 4 C. The supernatant was dried under centrifugation and vacuum and reconstituted with running buffer. Reverse phase-HPLC/ECA separation was accomplished on shisedo MG240 C18 HPLC column (4.6×250 mm, 3μ particle size), flow rate 1 ml/min, using 50% methanol in 0.1M sodium phosphate buffer pH 3, isocratic elution was performed for 20 min using 4 channel electrochemical array. Levels of MIND4 in the brain samples were determined using integrated peak areas and the standard curves

[2] = test system: mutant HTT exon 1 fragment; experiment: Mutant HTT exon 1 levels in R6/2 mice (HTRF); type: in vivo, mouse; conditions: 50 mg/kG daily for 3 weeks
Description: In effects of brain-permeable MIND4 on clearance misfloded mutant HTT fragments have been tested in HD mouse model R6/2, expressing mutant HTT exon 1 fragment. Symptomatic HD mice (5 week old) have been treated with MIND4 at 50 mg/kG daily dose for 3 weeks. Treatment effects on levels of mutant exon 1 HTT have been measured by a highly sensitive HTRF method (FIG. 17C) as described (Mosckovitch-Lopatin, 2010; Chopra, 2012).

EGFP-NRF2 = experiment: Live-cell imaging of HEK293 cells expressing EGFP-NRF2 and KEAP1-mCherry; type: cell-based, human; conditions: 1 μM for 1 hr
Description: To examine the effect of MIND4-17 on the stabilization and sub-cellular localization of NRF2 in live cells, HEK293 cells (200,000 per dish) grown in α-MEM supplemented with 10% heat-inactivated FBS on 6-cm glass dishes, were co-transfected with constructs encoding EGFP-NRF2 and KEAP1-mCherry using Lipofectamine 2000 (Invitrogen) as described [Baird, 2013]. Cells were imaged 24 hr post-transfection before and after 1 hr-exposure to 1 μM MIND4-17. All images were acquired by confocal microscopy using a laser-scanning confocal microscope (LSM780; Carl Zeiss). The microscope was equipped with a thermostated chamber suitable to maintain the live cells and optics at constant 37° C. Imaging was performed using a 63× oil immersion NA 1.4 Plan-Apochromat objective from Zeiss.

primary human monocytes = experiment: Cytokine production by primary monocytes from HD patients and controls; type: cell-based; design: Levels of IL-1, IL-6, IL-8 and TNFα: dose or concentration left out as unconfirmed
Description: Blood samples were obtained from control subjects and genetically-diagnosed, symptomatic HD patients. Patients were classed as having early or moderate-stage disease using the total functional capacity (TFC) scale (13-7, early; 6-3, moderate) [Marder, 2000]. Subjects with inflammatory or infective conditions were excluded. Cells were isolated from whole blood, as previously described [Björkqvist, 2008]. In brief, 50 ml whole blood was collected in heparin (CP Pharmaceuticals) and leukocytes were isolated by density gradient centrifugation. Monocytes were sorted via magnetic cell separation columns using anti-CD14 microbeads (Miltenyi Biotec). Monocytes were seeded at 1×10^5 cells per well in 96-well PRIMARIA™ tissue culture plates (BD Falcon) with R10 media (RPMI culture medium supplemented with 10% FCS, 2 mM L-glutamine, 50 U/ml penicillin and […] streptomycin (Invitrogen)). […] Supernatants were analyzed using the human pro-inflammatory II (4-plex) MSD assay measuring IL-1b, IL-6, IL-8 and TNFα. […] Cell death was measured using a LDH assay (CytoTox-Fluor™ Cytotoxicity Assay from Promega). Normalized cytokine levels have been analyzed on the logarithmic scale due to their skewed distribution. […] Contrasts of interest were then calculated using linear combinations of parameter estimates.

SMILES | concentration at 2 h [1] | Mutant HTT exon 1 fragments in cortex [2] | Stabilization and sub-cellular localization of NRF2 (EGFP-NRF2) | Levels of IL-1, IL-6, IL-8 and TNFα (primary human monocytes; HD patient cells) | IL-1, IL-6, IL-8 and TNFα production (primary human monocytes; monocytes from HD patients and normal subjects, LPS and IFN-g stimulation, different doses)
O=[N+]([O-])c1ccc(Sc2nnc(COc3ccccc3)n2-c2ccccc2)c2ncccc12 [MIND4, 5-nitro-8-{[5-(phenoxymethyl)-4-phenyl-4H-1,2,4-triazol-3-yl]thio}quinoline] | ~500 nM | Significant reduction of mutant HTT exon I fragments |  |  | 
O=[N+]([O-])c1ccc(Sc2nnc(COc3ccccc3)n2-c2ccccc2)nc1 [MIND4-17] |  |  | stabilization and nuclear translocation of EGFP-NRF2 | significant decrease in the levels of all four cytokines | reduced IL-1, IL-6, IL-8, and TNFα production
